Experimental data reported in patent publication EP0429372A1, “2-Azolyl nicotinate derivatives as herbicides” (RHONE-POULENC AGROCHIMIE, priority 1989, dated 1991).
Where two headings read alike, the source gives them in different places.

Key:
Assay type in all cases: in vivo
Solanum nigrum [1] = experiment: Example B: post-emergence herbicidal application, pot test; conditions: 576 h
From the text: (§1) Dans des pots de 7 x 7 x 8 cm remplis de terre agricole légère, on sème un nombre de graines déterminé en fonction de l'espèce végétale et de la grosseur de la graine.
(§2) On recouvre ensuite les graines d'une couche de terre d'environ 3 mm d'épaisseur et on laisse germer la graine jusqu'à ce qu'elle donne naissance à une plantule au stade convenable. Le stade de traitement pour les graminées est le stade "deuxième feuille en formation ". Le stade de traitement pour les dicotylédones, est le stade "cotylédons étalés, première feuille vraie en développement".
(§3) Les pots sont alors traités par pulvérisation de bouillie en quantité correspondant à une dose volumique d'application de 500 l/ha et contenant la matière active à la concentration désirée.
(§4) La bouille a été préparée de la même manière qu'à l'exemple A.
(§5) Les pots traités sont ensuite placés dans des bacs destinés à recevoir l'eau d'arrosage, en subirrigation, et maintenus pendant 24 jours à température ambiante sous 70 % d'humidité relative.
(§6) Au bout de 24 jours, on mesure un pourcentage (D) de destruction du nombre de pieds dans le pot traité par rapport au nombre de plantes dans les pots non traités (témoin). On mesure, sur les plantes traitées restantes, le pourcentage de réduction de taille (RT) par rapport aux plantes témoin.
(§7) Le pourcentage du volume foliaire non détruit par le produit est donc donné par la formule : [formula]
(§8) Cette valeur A est transformée en notation de 0 à 5 selon l'échelle suivante :
(§9) Les résultats obtenus sont présentés après le tableau A pour des doses d'application de 4000 g/ha.

Ipomea purpurea = experiment: as above; conditions: 576 h
From the text: as §1, §2, §3, §4, §5, §6, §7, §8, §9

Echinochloa crusgalli = experiment: as above; conditions: 576 h
From the text: as §1, §2, §3, §4, §5, §6, §7, §8, §9

Digitaria sanguinalis = experiment: as above; conditions: 576 h
From the text: as §1, §2, §3, §4, §5, §6, §7, §8, §9

Chrysanthemum segetum = conditions: post-emergence, 500 g/ha, 576 h
From the text: as §1
as §2, with “formation".” for “formation ".”
as §3
(§10) La bouillie a été préparée de la même manière qu'à l'exemple A.
as §5, §6
(§11) Le pourcentage de volume foliaire non détruit par le produit est donc donné par la formule : [formula]
as §8
(§12) Ainsi, un produit est jugé comme sélectif vis à vis de la culture lorsque la valeur A notée est de 0 ou 1.
(§13) Les résultats obtenus sont présentés dans l'exemple C pour des doses d'application comprises entre 0,5 et 4 kg de matière active par hectare selon les produits.

Convolvulus arvensis = conditions: post-emergence, 500 g/ha, 576 h
From the text: as §1
as §2, with “formation".” for “formation ".”
as §3, §10, §5, §6, §11, §8, §12, §13

Polygonum convolvulus = conditions: 500 g/ha, 576 h
From the text: as §1
as §2, with “formation".” for “formation ".”
as §3, §10, §5, §6, §11, §8, §12, §13

Oryza sativa = experiment: Example C: selectivity test in major crops, post-emergence application; conditions: crop (Riz), 24 days, score 0-5, 0 or 1 = selective; also: ranges in brackets are in %
From the text: as §1
as §2, with “formation".” for “formation ".”
as §3, §10, §5, §6, §11, §8, §12, §13

Sesbania exaltata = experiment: as above; conditions: 576 h
From the text: as §1
as §2, with “formation".” for “formation ".”
as §3, §10, §5, §6, §11, §8, §12, §13

Viola tricolor = experiment: as above; conditions: 500 g/ha, 576 h
From the text: as §1
as §2, with “formation".” for “formation ".”
as §3, §10, §5, §6, §11, §8, §12, §13

Solanum nigrum [2] = experiment: as above; conditions: 576 h
From the text: as §1
as §2, with “formation".” for “formation ".”
as §3, §10, §5, §6, §11, §8, §12, §13

Triticum aestivum = experiment: as above; conditions: crop (Blé), 24 days, score 0-5, 0 or 1 = selective; also: ranges in brackets are in %
From the text: as §1
as §2, with “formation".” for “formation ".”
as §3, §10, §5, §6, §11, §8, §12, §13

Ipomea pupurea = experiment: as above; conditions: 576 h
From the text: as §1
as §2, with “formation".” for “formation ".”
as §3, §10, §5, §6, §11, §8, §12, §13

Xanthium pennsylvanicum = experiment: as above; conditions: 576 h
From the text: as §1
as §2, with “formation".” for “formation ".”
as §3, §10, §5, §6, §11, §8, §12, §13

Zea mays = experiment: as above; conditions: crop (Maïs), 24 days, score 0-5, 0 or 1 = selective; also: ranges in brackets are in %
From the text: as §1
as §2, with “formation".” for “formation ".”
as §3, §10, §5, §6, §11, §8, §12, §13

Sinapis alba [3] = experiment: Example B: post-emergence herbicidal application, pot test; conditions: 1000 g/ha, 576 h
Lolium multiflorum = experiment: as above; conditions: 4000 g/ha, 576 h
From the text: as §1, §2, §3, §4, §5, §6, §7, §8, §9

Sinapis alba [4] = experiment: as above; conditions: 4000 g/ha, 576 h
From the text: as §1, §2, §3, §4, §5, §6, §7, §8, §9

Sinapis alba [5] = experiment: Example C: selectivity test in major crops, post-emergence application; conditions: 1000 g/ha, 576 h
From the text: as §1
as §2, with “formation".” for “formation ".”
as §3, §10, §5, §6, §11, §8, §12, §13

mauvaises herbes [6] = conditions: post-emergence
From the text: (§14) Des quantités appropriées des composés d'essai ont été dissoutes dans de l'acétone pour obtenir des solutions équivalant à des taux d'application de 250, 1000 ou 4000 g de composé d'essai par hectare (g/ha).
Des espèces de mauvaises herbes ont été cultivées, puis transplantées au stade de jeunes plants de semis dans du compost de mise en pot John Innes N°1 dans des pots en matière plastique de 70 mm de côté et 75 mm de profondeur, sauf en ce qui concerne Avena fatua, qui a été semée directement dans le pot d'essai et n' a pas été transplantée. Puis les plantes ont été cultivées dans la serre jusqu'à ce qu'elles soient prêtes à subir une pulvérisation avec les composés d'essai. Le nombre de plantes par pot et la croissance de la plante au moment de la pulvérisation étaient les suivantes :
Les composés d'essai ont été appliquées aux plantes de la manière décrite dans le paragraphe (a) ci-dessus. Un seul pot de chaque espèce de mauvaises a été attribué à chaque traitement, en association avec des témoins n'ayant pas subi de pulvérisation et des témoins ayant subi une pulvérisation avec de l'acétone seule. Après pulvérisation, les pots ont été arrossés par aspersion, en commençant 24 heures après pulvérisation. L'évalutation visuelle de la lutte contre la croissance des mauvaises herbes a été effectuée 17 à 20 jours après pulvérisation. Les résultats ont été exprimés en pourcentage de réduction de croissance ou de mortalité des mauvaises herbes, comparativement aux plantes présentes dans les pots témoins.

mauvaises herbes [7] = experiment: Procedure 1 b): weed control, pre-emergence application; conditions: 4000 g/ha (procédé 1B), visual rating 17 to 20 days after spraying, vs control pots
From the text: as §14
Des graines de mauvaises herbes ont été semées à la surface de compost de mise en pot John Innes N°1 (7 parties par volume de terre végétale stérilisée, 3 parties en volume de gravier fin) dans des pots en matière plastique de 70 mm de côté et 75 mm de profondeur. Les quantités de graines par pot étaient les suivantes :
Les composés de la présente invention ont été appliqués aux graines non recouvertes de la manière décrite dans le paragraphe (a) ci-dessus et ces graines ont été recouvertes avec 25ml de sable liant après pulvérisation. Un seul pot de chaque espèce de mauvaise herbe a été attribué à chaque traitement, en association avec des témoins n'ayant pas subi de pulvérisation et des témoins ayant subi une pulvérisation avec de l'acétone seule. Après traitement, les pots ont été maintenus dans une serre et ont été arrosés par aspersion. L'évaluation visuelle de l'activité de destruction des mauvaises herbes a été effectuée 17 à 20 jours après pulvérisation. Les résultats ont été exprimés par le pourcentage de réduction de croissance ou de mortalité des mauvaises herbes, comparativement aux plantes présentes dans les pots témoins.

CN(C)S(=O)(=O)n1c(-c2ncccc2C(=O)O)nc2ccccc21 [compound 119]
5 (O à 10): ACTIVITE DE POST-LEVEE SOL (Solanum nigrum [1]; 1000 g/ha) | ACTIVITE HERBICIDE DE POST LEVEE C H Y (Chrysanthemum segetum) | ACTIVITE HERBICIDE DE POST LEVEE P O L (Polygonum convolvulus) | ACTIVITE HERBICIDE DE POST LEVEE S E S (Sesbania exaltata; 500 g/ha)
3 (30 à 50): ACTIVITE DE POST-LEVEE IPO (Ipomea purpurea; 1000 g/ha) | ACTIVITE HERBICIDE DE POST LEVEE V I O (Viola tricolor) | ACTIVITE HERBICIDE DE POST LEVEE I P O (Ipomea pupurea; 500 g/ha) | ACTIVITE HERBICIDE DE POST LEVEE X A N (Xanthium pennsylvanicum; 500 g/ha)
0 (90 à 100): ACTIVITE DE POST-LEVEE ECH (Echinochloa crusgalli; 1000 g/ha) | ACTIVITE DE POST-LEVEE DIG (Digitaria sanguinalis; 1000 g/ha) | ACTIVITE HERBICIDE DE POST LEVEE O R Y (Oryza sativa; dose 0,5 kg/ha) | ACTIVITE HERBICIDE DE POST LEVEE T R Z (Triticum aestivum; dose 0,5 kg/ha) | ACTIVITE HERBICIDE DE POST LEVEE Z E A (Zea mays; dose 0,5 kg/ha)
4 (10 à 30): ACTIVITE HERBICIDE DE POST LEVEE S O L (Solanum nigrum [2]; 500 g/ha) | ACTIVITE DE POST-LEVEE SIN (Sinapis alba [3])
2 (50 à 70): ACTIVITE HERBICIDE DE POST LEVEE C O N (Convolvulus arvensis)

CN(C)S(=O)(=O)n1nc(-c2ccccc2)nc1-c1ncccc1C(=O)O [compound 1, Sel d'isopropylamine de 3 -(3 - carboxy 2 - pyridyl) 2 - N,N dimethyl sulfamoyl 5 - phényl 1,2,4 - triazole]
5 (O à 10): ACTIVITE DE POST-LEVEE SOL (Solanum nigrum [1]; 4000 g/ha) | ACTIVITE DE POST-LEVEE SIN (Sinapis alba [4]) | ACTIVITE HERBICIDE DE POST LEVEE S E S (Sesbania exaltata; 1000 g/ha) | ACTIVITE HERBICIDE DE POST LEVEE S O L (Solanum nigrum [2]; 1000 g/ha) | ACTIVITE HERBICIDE DE POST LEVEE S I N (Sinapis alba [5])
4 (10 à 30): ACTIVITE HERBICIDE DE POST LEVEE I P O (Ipomea pupurea; 1000 g/ha) | ACTIVITE HERBICIDE DE POST LEVEE X A N (Xanthium pennsylvanicum; 1000 g/ha)
0 (90 à 100): ACTIVITE DE POST-LEVEE ECH (Echinochloa crusgalli; 4000 g/ha) | ACTIVITE DE POST-LEVEE LOL (Lolium multiflorum) | ACTIVITE DE POST-LEVEE DIG (Digitaria sanguinalis; 4000 g/ha) | ACTIVITE HERBICIDE DE POST LEVEE O R Y (Oryza sativa; dose 1 kg/ha) | ACTIVITE HERBICIDE DE POST LEVEE T R Z (Triticum aestivum; dose 1 kg/ha) | ACTIVITE HERBICIDE DE POST LEVEE Z E A (Zea mays; dose 1 kg/ha)
3 (30 à 50): ACTIVITE DE POST-LEVEE IPO (Ipomea purpurea; 4000 g/ha)

CN(C)S(=O)(=O)n1c(-c2ncccc2C(=O)OCC(F)(F)F)nc2ccccc21 [compound 100]
≥ 90%: réduction de la croissance d'une ou plusieurs des espèces de mauvaises herbes (mauvaises herbes [6]) | réduction de la croissance d'une ou plusieurs des espèces de mauvaises herbes (mauvaises herbes [7])
